These results are taken from patent US20230348564A1, “ANTI-CANCER PROTEINS” (UNICHEM LABORATORIES LTD, priority 2020, published 2023).

Data set [1] deals with MDA-MB-453 (Human breast metastatic carcinoma). The data set can be described thus: MTT cytotoxicity assay. The settings on record: SEQ ID NO. 2 80 μg/ml, doxorubicin 75 μM; 48h. The procedure: (§1) All the cancer cell lines were procured from National Centre for Cell Science, Pune (India). Cell lines were maintained under conditions as mentioned in Table 23. The cell lines were sub-cultured by trypsinization followed by splitting the cell suspension into fresh flasks and supplementing with fresh culture medium.
(§2) All the cell lines were grown in specified media at 37° C. with 95% Humidity and 5% CO2.
(§3) The cells were trypsinized, counted by Trypan blue method in Neuebauer's Chamber and plated in wells of flat bottom 96-well plate at the density corresponding to 10×10^3 cells/well/200 μL medium.
(§4) Following overnight incubation, the media in the plate was replenished with 180 μL/well and then the cells were treated with 20 μL of each test item at concentrations ranging from 2.5 μg/mL-80 μg/mL in triplicates, so that the total volume in each well is 200 μL.
(§5) The untreated cells served as negative control. The cells were incubated with the test items or positive control for a time period of 48h. Following incubation, the cell cytotoxicity was estimated using MTT assay. Absorbance was measured at 540 nm. The percentage cytotoxicity corresponding to each treatment was calculated using the formula:
(§6) % Cytotoxicity=(1−X/R)*100
(§7) Where X=absorbance of wells corresponding to treated cells R=absorbance of untreated cells (cells maintained in growth medium only)
(§8) IC50 value was calculated using Graph-Pad Prism version 4.01 software.

Data set [2] deals with MDA-MB-231 (Human breast adenocarcinoma). The data set is described as follows: MTT cytotoxicity assay. The settings on record: SEQ ID NO. 2 80 μg/ml, doxorubicin 75 μM; 48h. The procedure:
as §1, §2, §3, §4, §5, §6, §7, §8

The subject of data set [3] is HT-29 (Human Colorectal adenocarcinoma). The data set can be described thus: Calcein AM cytotoxicity assay. The settings on record: SEQ ID 2 80 μg/mL, doxorubicin 100 μM; 48h. As for the experimental part: (§9) All the cancer cell lines were procured from National Centre for Cell Science, Pune (India). The cell lines were maintained under conditions as described in Table 21 below. The cell lines were sub-cultured by trypsinization followed by splitting the cell suspension into fresh flasks and supplementing with fresh culture medium.
(§10) All the cell lines were grown in specified media at 37° C. with 95% Humidity and […].
(§11) The cells were trypsinized, counted by Trypan blue method in Neuebauer's Chamber and plated in wells of flat bottom 96-well plate (dark walled plate, flat bottom) at the density corresponding to 10×10^3 cells/well/180 μl medium.
(§12) Following overnight incubation, the cells were treated with test item (20 μL) at concentrations ranging from 2.5-80 μg/mL, so that the total volume in each well is 200 μL.
(§13) The cells were incubated with the test items or positive control for a time period of 48h. Following incubation, the cell cytotoxicity was estimated using Calcein AM Cell Viability Assay Kit from R&D systems (Cat No. 4892-010-K).
(§14) Fluorescence was measured at 485 nm (excitation/528 run (emission) spectra using Synergy HT micro plate reader.
(§15) Percentage cytotoxicity wrt untreated cells was calculated using formula:
(§16) Cytotoxicity=[(RFUuntreated−RFUsample)/RFUuntreated]*100
(§17) RFU: relative fluorescence units
as §8

Data set [4] deals with THP-1 (Human acute monocytic leukemia). The data set is described as follows: Calcein AM cytotoxicity assay. The settings on record: SEQ ID 2 80 μg/mL, doxorubicin 100 μM; 48h. As for the experimental part: as §9, §10, §11, §12, §13, §14, §15, §16, §17, §8
Data set [5] deals with Human Primary mammary epithelial (HMEC) cells. The data set can be described thus: Calcein AM cytotoxicity assay. The settings on record: SEQ ID 2 80 μg/mL, doxorubicin 100 μM; 48h. As for the experimental part:
as §9, §10, §11, §12, §13, §14, §15, §16, §17, §8

In data set [6] the test system is ZR-75-1 (Human ductal carcinoma). The data set is described as follows: Calcein AM cytotoxicity assay. The settings on record: SEQ ID 2 80 μg/mL, doxorubicin 100 μM; 48h. The procedure: as §9, §10, §11, §12, §13, §14, §15, §16, §17, §8
Data set [7] relates to PBMCs (Peripheral blood mononuclear cells). The data set can be described thus: Calcein AM cytotoxicity assay. The settings on record: SEQ ID 2 80 μg/mL, doxorubicin 100 μM; 48h. The procedure: as §9, §10, §11, §12, §13, §14, §15, §16, §17, §8
Data set [8] relates to MCF-7 (Human breast adenocarcinoma). The data set can be described thus: Calcein AM cytotoxicity assay. The following applies: SEQ ID 2 80 μg/mL, doxorubicin 100 μM; 48h. The procedure: as §9, §10, §11, §12, §13, §14, §15, §16, §17, §8
The subject of data set [9] is PC-3 (Human Prostate Cancer). The data set is described as follows: Calcein AM cytotoxicity assay. The following applies: SEQ ID 2 80 μg/mL, doxorubicin 100 μM; 48h. As for the experimental part:
as §9, §10, §11, §12, §13, §14, §15, §16, §17, §8

Data set [10] concerns A549 (Human lung carcinoma). The data set is described as follows: Calcein AM cytotoxicity assay. The following applies: SEQ ID 2 80 μg/mL, doxorubicin 100 μM; 48h. The procedure: as §9, §10, §11, §12, §13, §14, §15, §16, §17, §8
In data set [11] the test system is SK-Mel-28 (Human melanoma). The data set can be described thus: Calcein AM cytotoxicity assay. The settings on record: SEQ ID 2 80 μg/mL, doxorubicin 100 μM; 48h. As for the experimental part: as §9, §10, §11, §12, §13, §14, §15, §16, §17, §8
In data set [12] the test system is SW620 (Human Colorectal adenocarcinoma). The data set can be described thus: Calcein AM cytotoxicity assay. The settings on record: SEQ ID 2 80 μg/mL, doxorubicin 100 μM; 48h. As for the experimental part: as §9, §10, §11, §12, §13, §14, §15, §16, §17, §8
Data set [13] concerns PA-1 (Human Ovary carcinoma). The data set can be described thus: Calcein AM cytotoxicity assay. The settings on record: SEQ ID 2 80 μg/mL, doxorubicin 100 μM; 48h. As for the experimental part: as §9, §10, §11, §12, §13, §14, §15, §16, §17, §8
The subject of data set [14] is SKOV-3 (Human Ovary adenocarcinoma). The data set is described as follows: Calcein AM cytotoxicity assay. The settings on record: SEQ ID 2 80 μg/mL, doxorubicin 100 μM; 48h. The procedure: as §9, §10, §11, §12, §13, §14, §15, §16, §17, §8
Data set [15] deals with KB (Human cervical carcinoma). The data set can be described thus: Calcein AM cytotoxicity assay. The settings on record: SEQ ID 2 80 μg/mL, doxorubicin 100 μM; 48h. The procedure: as §9, §10, §11, §12, §13, §14, §15, §16, §17, §8
The subject of data set [16] is MCF-10A (Human mammary epithelial cells). The data set can be described thus: Calcein AM cytotoxicity assay. The settings on record: SEQ ID 2 80 μg/mL, doxorubicin 100 μM; 48h. The procedure:
as §9, §10, §11, §12, §13, §14, §15, §16, §17, §8

Data set [17] concerns AGS (Human stomach adenocarcinoma). The data set is described as follows: Calcein AM cytotoxicity assay. The settings on record: SEQ ID 2 80 μg/mL, doxorubicin 100 μM; 48h. As for the experimental part: as §9, §10, §11, §12, §13, §14, §15, §16, §17, §8
Data set [18] has as its system SiHa (Human cervix squamous cell carcinoma). The data set is described as follows: Calcein AM cytotoxicity assay. The settings on record: SEQ ID 2 80 μg/mL, doxorubicin 100 μM; 48h. As for the experimental part:
as §9, §10, §11, §12, §13, §14, §15, §16, §17, §8

Regarding `COc1cccc2c1C(=O)c1c(O)c3c(c(O)c1C2=O)C[C@@](O)(C(=O)CO)C[C@@H]3O[C@H]1C[C@H](N)[C@H](O)[C@H](C)O1` [Doxorubicin, reference compound], the “Cytotoxicity at highest concentration tested” value (“Cytotoxicity” for short) is 71.4% in [1]; 50.2% in data set [2]; 75.0% in data set [3]; 33.6% in [4]; 87.6% in [5]; 52.6% in data set [6]. Also, the “Cytotoxicity” value in [7] is given as 64.3%; in [8], 60.7%; in data set [9], 75.3%; in [10] it was 78.4%; in data set [11], 65.9%; in [12], 93.5%. Also, the “Cytotoxicity” value in data set [13] was 82.3%; in data set [14], 61.74%; in [15] it was 92.0%; in data set [16], 93.8%; in data set [17] it was 81.0%; in data set [18], 87.2%.
